Source: patent US10308652B2, “Tricyclic heterocyclic compounds useful as inhibitors of TNF” (BRISTOL-MYERS SQUIBB COMPANY, priority 2015, dated 2019)

Target: TNFα (Homo sapiens (Human), UniProt P01375)
Assay: TNF induced HEK-Blue assay
Assay type: cell-based
Conditions: TNFα 0.5 ng/ml; HEK-Blue-CD40L cells, NF-κB-driven secreted alkaline phosphatase reporter; 18 h
Description: TNF or CD40L-induced HEK-Blue Assay Test compounds serially diluted in DMSO were plated in an assay plate (Labcyte, Cat. #LP-0200) at final concentrations ranging from 0.004 μM to 25μM. TNFα (final concentration 0.5 ng/ml) or CD4OL (final concentration 30 ng/ml) in assay buffer [DMEM, 4.5 g/l glucose (Gibco, Cat. 21063-029), 10% FBS (Sigma, F4135), 1% Penicillin-Streptomycin (Gibco, Cat. 15140-122), 1% Anti-Anti (Gibco, Cat. 15240-112) and 2 mM L-glutamine (Gibco, Cat. 25030-081)] was then added to the assay plate. After a 30 minute pre-incubation at 37° C. and 5% CO2, HEK-Blue-CD40L cells (InvivoGen, Cat. Code hkb-cd40) containing a NF-κB-driven secreted alkaline phosphatase reporter gene were seeded into the assay plate at a density of 20,000 cells per well. This plate was then incubated for 18 h at 37° C. and 5% CO2. Secreted alkaline phosphatase expression was measured using QUANTI-Blue (InvivoGen, Cat. Code rep-qb1) according to manufacturer's specifications and the assay plate was read on a PerkinElmer Envision at 620 nm. Inhibition data for the test compound over a range of concentrations was plotted as percentage inhibition of the test compound (100%=maximum inhibition). IC50 values were determined after correcting for background [(sample read−mean of low control)/(mean of high control−mean of low control)] where by the low control is DMSO without stimulation and high control is DMSO with stimulation. The IC50 is defined as the concentration of test compound which produces 50% inhibition and was quantified using the 4 parameter logistic equation to fit the data.

TNFα, sequence (P01375 77-233): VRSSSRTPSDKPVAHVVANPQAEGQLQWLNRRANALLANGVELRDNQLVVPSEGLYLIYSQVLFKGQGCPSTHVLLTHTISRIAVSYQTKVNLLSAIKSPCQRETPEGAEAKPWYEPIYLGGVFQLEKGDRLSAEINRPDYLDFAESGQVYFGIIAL

Row | IC50 | Compound
1 | 1000 to 10000 nM | CC(C)(O)c1ccc(-c2ccc3nc4c(n3n2)C(c2ccccc2OC(F)F)OCC4(O)c2ccncc2)cc1 (stereo not drawn) [Example 60, 9-(2-(Difluoromethoxy)phenyl)-2-(4-(2-hydroxypropan-2-yl)phenyl)-6-(pyridin-4-yl)-6,9-dihydro-7H-pyrano[4′,3′:4,5]imidazo[1,2-b]pyridazin-6-ol]
2 | 1000 to 10000 nM | CC(C)(O)c1ccc(-c2ccc3nc4c(n3n2)[C@H](c2ccccc2OC(F)F)OC[C@H]4O)cc1 (racemic) [Example 57, Rac-(6S,9S)-9-(2-(difluoromethoxy)phenyl)-2-(4-(2-hydroxypropan-2-yl)phenyl)-7,9-dihydro-6H-pyrano[4′,3′:4,5]imidazo[1,2-b]pyridazin-6-ol]
3 | < 1000 nM | CC(C)(O)c1ccc(-c2ccc3nc4c(n3n2)[C@H](c2ccccc2OC(F)F)OC[C@@H]4O)cc1 (relative stereo) [Example 58, Cis-9-(2-(difluoromethoxy)phenyl)-2-(4-(2-hydroxypropan-2-yl)phenyl)-6,9-dihydro-7H-pyrano[4′,3′:4,5]imidazo[1,2-b]pyridazin-6-ol]
4 | < 1000 nM | CC(C)(O)c1ncc(-c2ccc3nc4c(n3n2)C(c2ccccc2OC(F)F)OCC4)cn1 (stereo not drawn) [Example 63, 2-(5-(9-(2-(Difluoromethoxy)phenyl)-7,9-dihydro-6H-pyrano[4′,3′:4,5]imidazo[1,2-b]pyridazin-2-yl)pyrimidin-2-yl)propan-2-ol]
5 | 1000 to 10000 nM | CC(C)(O)c1ccc(-c2ccc3nc4c(n3n2)[C@H](c2cc(Cl)ccc2C(F)(F)F)NC[C@H]4O)cc1 (racemic) [Example 55, (+/−)-trans-9-(5-chloro-2-(trifluoromethyl)phenyl)-2-(4-(2-hydroxypropan-2-yl)phenyl)-6,7,8,9-tetrahydropyrido [4′,3′:4,5]imidazo[1,2-b]pyridazin-6-ol]
6 | 1000 to 10000 nM | Cc1cc(F)ccc1[C@@H]1NC[C@@H](O)c2nc3ccc(-c4ccc(C(C)(C)O)cc4)nn3c21 (racemic) [Example 38, (+/−)-trans-9-(4-fluoro-2-methylphenyl)-2-(4-(2-hydroxypropan-2-yl)phenyl)-6,7,8,9-tetrahydropyrido[4′,3′:4,5]imidazo[1,2-b]pyridazin-6-ol]

Further lines, the compound ahead of its results:

Row | Compound | IC50
7 | CCOc1ccc(-c2ccc3nc4c(n3n2)[C@@H](c2ccccc2OC(F)F)NC[C@H]4O)cc1 (racemic) [Example 31, (+/−)-cis-9-(2-(difluoromethoxy)phenyl)-2-(4-ethoxyphenyl)-6,7,8,9-tetrahydropyrido[4′,3′:4,5]imidazo [1,2-b]pyridazin-6-ol] | 1000 to 10000 nM
8 | CCOC(C)c1ccc(-c2ccc3nc4c(n3n2)C(c2ccccc2OC(F)F)NCC4O)cc1 (racemic) [Example 35, (+/−)-cis-9-(2-(difluoromethoxy)phenyl)-2-(4-(1-ethoxyethyl)phenyl)-6,7,8,9-tetrahydropyrido[4′,3′:4,5]imidazo[1,2-b]pyridazin-6-ol] | 1000 to 10000 nM
9 | (+/−)-trans-9-(2-(difluoromethoxy)phenyl)-2-(4-(2-hydroxy-2-methylpropoxy)phenyl)-6,7,8,9-tetrahydropyrido[4′,3′:4,5]imidazo[1,2-b]pyridazin-6-ol [Example 52] | 1000 to 10000 nM
10 | CCc1ccccc1[C@@H]1NC[C@@H](O)c2nc3ccc(-c4ccc(C(C)(C)O)cc4)nn3c21 (racemic) [Example 24, (+/−)-trans-9-(2-ethylphenyl)-2-(4-(2-hydroxypropan-2-yl)phenyl)-6,7,8,9-tetrahydropyrido[4′,3′:4,5]imidazo[1,2-b]pyridazin-6-ol] | < 1000 nM
11 | COc1ccc(-c2ccc3nc4c(n3n2)C(c2ccccc2OC(F)F)NCC4O)cn1 [Example 16, cis-(6R,9S)-9-(2-(difluoromethoxy)phenyl)-2-(6-methoxypyridin-3-yl)-6,7,8,9-tetrahydropyrido[4′,3′:4,5]imidazo[1,2-b]pyridazin-6-ol] | 1000 to 10000 nM
12 | O=C(NC1CC1)c1ccc(-c2ccc3nc4c(n3n2)C(c2ccccc2OC(F)F)NCC4O)cn1 (stereo not drawn) [Example 21, N-cyclopropyl-5-(9-(2-(difluoromethoxy)phenyl)-6-hydroxy-6,7,8,9-tetrahydropyrido[4′,3′:4,5]imidazo[1,2-b]pyridazin-2-yl)picolinamide] | 1000 to 10000 nM
